Like-named read-outs stand apart in the source and are kept apart here.
Tests used:
[1] = tested on: A431/CCKBR cells; experiment: Proliferation assay (CellTiter 96 AQueous, MTS); assay type: cell-based, human; details: 10 μM kinase inhibitor; FIG. 1C
Protocol: Cells were seeded in 96-well plates before treatment as described above, and cell proliferation was analyzed by a CellTiter 96 AQueous Non-Radioactive Cell Proliferation Assay (Promega) according to the manufacturer's instructions. Absorbance of MTS bio-reduced into a formazan was measured at 570 nm with a reference of 650 nm using a MicroPlate Reader (PerkinElmer). The assay was performed in triplicate.

[2] = tested on: A431/CCKBR cells; experiment: In vitro radiolabelled peptide internalization assay; assay type: cell-based, human; details: for Protein levels as compared to control: A431/CCKBR cell lysates, 20 h treatment, FIG. 2B; for membrane bound activity: treated vs control cells, FIG. 2A
Protocol: (§1) 2.5×10^5 cells were seeded on 6-well plates. Eight hours later cells were treated with appropriate inhibitors (as indicated) for 20 h. […] After 1 or 2 h incubation, radioactive medium (together with PBS wash) was collected and the cells were subjected to 2× wash with glycine buffer (pH=2) for 5 min at RT followed by a dissolving step in 1 M NaOH for 15 min at 37° C. […] Protein concentration of NaOH-dissolved cell lysates was measured by spectrophotometry using a NanoPhotometer® UV-Vis P-Class (Implen).

[3] = tested on: mTORC1-regulated phosphorylation of ribosomal protein S6 at Ser235/236; experiment: WB analysis of phospho-S6 (mTORC1 activity); assay type: cell-based, human; details: A431/CCKBR cells, 20 h treatment, FIG. 2C
Protocol: The inhibitor activity of the rapamycin and/or rapalog towards mTORC1 can be determined by measuring the level of phosphorylation of ribosomal protein S6 by Western Blot analysis as described further below.
(§2) Antibodies against phospho-S6 at S235/S236 (D57.2.2F) and GAPDH (14C10) were obtained from Cell Signaling Technology, whereas anti-CCKBR (ab77077) was from Abcam. Cells were homogenized in lysis buffer (50 mM Tris-HCl pH 7.5, 150 mM NaCl, 1% Triton X, 0.1% SDS supplemented with 1 mM sodium orthovanadate, 1 mM NaF and protease inhibitor cocktail (Roche)). Aliquots of 50 μg protein extracts were separated by SDS-PAGE and transferred to PVDF membranes (Millipore) by electroblotting. Membranes were blocked with 5% skim milk in TBST (0.1% Tween 20) for 1 h, and incubated with 2% BSA in TBST overnight with the primary antibody followed by 2 h incubation with HRP-conjugated secondary antibody. Protein-specific signals were detected by a chemiluminescence reagent (ECL) and signals were acquired by using ImageQuant RT ECL Imager (GE Healthcare).

[4] = tested on: AR42J cells; experiment: In vitro radiolabelled peptide internalization assay; assay type: cell-based, rat; details: AR42J cell lysates, FIG. 2B
Protocol: as §1

[5] = tested on: A431/CCKBR tumors; experiment: Immunochemistry (HE and Ki67 staining) of tumor sections; assay type: in vivo, mouse; details: five daily doses; for necrosis (percent of necrotic area): PBS-treated tumors 1.4±1.2%; for mitotic index: control 1.08±0.2%; for Ki67 positive cells: control 80±3.1%
Protocol: Paraffin sections of formalin-fixed A431/CCKBR tumors were subjected to deparaffinization. Rehydrated slides were pretreated in 10 mM citrate buffer, pH 6.0, at 98° C. for 60 minutes, followed by incubation with 4% fat-free milk in PBS for 90 minutes. For avidin/biotin blocker treatment (Invitrogen) and detection, the ABC method was used according to the manufacturer's instructions. For monoclonal antibody against Ki67 (Thermo Scientific, SP6) signals were recorded using an automated instrument reagent system (Discovery XT, Ventana Medical System Inc.) according to the user manual. Images of hematoxylin-counterstained sections were captured (Nikon, YTHM) and analyzed using ImageAccess Enterprise7 and ImageJ software (Schneider et al. Nat Methods 2012, 9(7), 671-675).
Paraffin tumor sections prepared from A431/CCKBR-tumor bearing nude mice treated with five daily doses of RAD001, metformin and PBS (control) were subjected to immunohistochemistry. RAD001 and PBS group includes 5 tumors, while in metformin group 4 tumors were analyzed.

[6] = tested on: A431/CCKBR-tumor bearing nude mice; experiment: Animal therapeutic study: tumor growth and survival; assay type: in vivo, mouse; details: for average tumor size on day 13: control 0.97 cm^3; for Median Survival: control 19.5
Protocol: For the animal study, human epidermoid carcinoma A431 cell line, which overexpresses CCKBR, was generated previously and kindly provided by Dr. Luigi Aloj. A431/CCKBR cells were cultured in DMEM, supplemented with 10% FCS, 2 mM glutamine and antibiotics (0.1 mg/mL streptomycin, 100 IU penicillin) at 37° C. and 5% CO2. […] RAD001 (3 mg/kg), or PBS (control) were administered via intraperitoneal injection daily for 5 or 10 days, as indicated. […] The tumor diameters and mice weight were recorded daily. The tumor volume was calculated by using the formula V=(W2×L)/2. The nude mice were sacrificed when the tumor volume exceeded 1.5 cm^3. […] These mice were excluded from the analysis.
In this experiment, GraphPad Prism 7.00 for Windows was used for all statistical analysis. One-way ANOVA combined with two-stage linear step-up procedure of Benjamini, Krieger and Yekutieli for multiple comparison test was used for all treated groups. Log-rank (Mantel-Cox) test was performed to compare different survival curves of the treatment groups with the control group. Endpoints were defined as death in the survival curves. Values of P≤0.05 were considered statistically significant.

[7] = tested on: CCKBR; experiment: WB analysis of CCKBR expression in deglycosylated lysates; assay type: cell-based, human; details: 50 nM or 100 nM RAD001, 20 h, A431/CCKBR cells
Protocol: For CCKBR-specific knock-down, duplex siRNAs against CCKBR or control duplex against luciferase (Microsynth) were used at a final concentration of 100 nM in Optimem (Gibco): CCKBRseq1 sense RNA 5′-[…]dTdT-3′(SEQ ID NO:5), CCKBRseq2 sense RNA 5′-[…]dTdT-3′(SEQ ID NO:6) and control sense RNA 5′-[…]dTdT-3′(SEQ ID NO:7). Cells at 60-80% confluence were transfected with siRNAs by using Lipofectamin 3000 according to the user's manual. Total protein lysates were subjected to WB analysis.
as §2, with “Healthcare). […]” for “Healthcare).”

[8] = tested on: A431/CCKBR xenograft; experiment: Biodistribution study in A431/CCKBR xenograft mouse model; details: three daily doses, FIG. 7B
Protocol: (§3) Immunocompromised CD-1 female nude mice (Charles Rivers, Germany) were housed one week before experimentation. Prior to tumor implantation, A431/CCKBR cells were harvested and 5 min cells in 0.1 mL of sterile phosphate-buffered saline (PBS) containing 0.9% NaCl were injected subcutaneously (two tumors per animal) into mice anesthetized by isoflurane/oxygen inhalation. After 5 days, animals were randomly distributed into 3 experimental groups and tumor size was measured non-invasively with a caliper. RAD001 (3 mg/kg), metformin (200 mg/kg) or PBS (control) were administered daily via intraperitoneal injection for 3 or 5 consecutive days, as indicated. […] Post mortem dissected tumors and organs were weighed and their activity was measured in a gamma counter.
(§4) To investigate the effects of RAD001 and metformin in vivo, A431/CCKBR cells were implanted subcutaneously into immunocompromised nude mice, and 5 days later after tumor formation, mice were subjected to treatment with RAD001, metformin or PBS (control) as described above.

[9] = tested on: A431/CCKBR xenograft; details: in vivo
Protocol: as §3, §4

Compound | changes in cell proliferation [1] | Protein levels as compared to control [2] [%] | membrane bound activity [2] | phosphorylation of ribosomal protein S6 at Ser235/236 [3] | Protein levels as compared to control [4] [%] | necrosis (percent of necrotic area) [5] | mitotic index [5] | Ki67 positive cells [5] | average tumor size on day 13 ([6]; 5 doses of RAD001 (3 mg/kg i.p. daily)) [cm^3] | average tumor size on day 13 ([6]; 10 doses of RAD001 (3 mg/kg i.p. daily)) [cm^3] | Median Survival ([6]; RAD001 5x) [days] | Median Survival ([6]; RAD001 10x) [days] | tumor growth ([6]; vs control, FIG. 10B) | increase of the CCKBR expression [7] | mouse weight [8] | tumor volume [8] | mouse weight [9]
O=C(O)c1ccc2nc(-c3ccccc3)c(-c3ccccc3)nc2c1 [BML257] | did not show significant changes in cell proliferation |  |  |  |  |  |  |  |  |  |  |  |  |  |  |  | 
CO[C@H]1C[C@@H]2CC[C@@H](C)[C@@](O)(O2)C(=O)C(=O)N2CCCC[C@H]2C(=O)O[C@H]([C@H](C)C[C@@H]2CC[C@@H](OCCO)[C@H](OC)C2)CC(=O)[C@H](C)/C=C(\C)[C@@H](O)[C@@H](OC)C(=O)[C@H](C)C[C@H](C)/C=C/C=C/C=C/1C [RAD001, Everolimus] |  | 80 | no significant difference in membrane bound activity | lack of mTORC1-regulated phosphorylation of ribosomal protein S6 at Ser235/236 | 84 | 10.6±6.4% | 0.75±0.36% | 61±8.6% | 0.31 | 0.11 | 27 | 32 | significantly inhibited tumor growth | approximately 2.2 fold | without influencing overall mouse weight | significantly reduced tumor volumes | 
CN(C)C(=N)N=C(N)N [metformin] |  | 79 | no significant difference in membrane bound activity | lack of mTORC1-regulated phosphorylation of ribosomal protein S6 at Ser235/236 |  | did not show significant difference | did not cause significant change | did not cause significant change |  |  |  |  |  |  |  | no effect on tumor volume or mouse weight | no effect on tumor volume or mouse weight
CO[C@H]1C[C@@H]2CC[C@@H](C)[C@@](O)(O2)C(=O)C(=O)N2CCCC[C@H]2C(=O)O[C@H]([C@H](C)C[C@@H]2CC[C@@H](O)[C@H](OC)C2)CC(=O)[C@H](C)/C=C(\C)[C@@H](O)[C@@H](OC)C(=O)[C@H](C)C[C@H](C)/C=C/C=C/C=C/1C [rapamycin] | did not show significant changes in cell proliferation |  |  |  |  |  |  |  |  |  |  |  |  |  |  |  | 

Reference: patent US20250345469A1, “COMPOSITION COMPRISING A RAPALOG AND A RADIOLABELLED GASTRIN ANALOGUE, IN PARTICULAR FOR USE IN THE TREATMENT AND/OR DIAGNOSIS OF CCKB RECEPTOR POSITIVE CANCER OR TUMORS” (Paul Scherrer Institut, priority 2020, published 2025)
